{
  "source": "patent EP0400190A1",
  "about": "“New water-soluble derivatives of nabumetone, a process for their preparation and pharmaceutical compositions which contain them” (MAGIS FARMACEUTICI S.p.A., priority 1989, dated 1990)",
  "key": {"[1]": {"tested_on": "edema induced in the rat by formalin", "test": "Anti-inflammatory activity on formalin-induced edema", "type": "in vivo", "settings": "read-out: ED₅₀", "source_text": "The anti-inflammatory activity of these enamines was studied in comparison with acetylsalicylic acid on edema induced in the rat by formalin."}, "mice": {"tested_on": "mice", "test": "Analgesic activity, Writhing test using p-phenylquinone", "type": "in vivo", "settings": "Mus musculus, po, mice treated orally, read-out: ED₅₀", "method": "The analgesic activity was measured by the Writhing test using p-phenylquinone on mice treated orally with the nabumetone enamines in comparison with acetylsalicylic acid, the results showing an ED₅₀ (mg/Kg) for the enamines of about 80 whereas for acetylsalicylic acid the value is about 106.1."}},
  "data": [
    {"molecule": "CC(=O)Oc1ccccc1C(=O)O", "note": "[acetylsalicylic acid]", "values": [
      {"measurement": "ED50", "setting": "[1]", "result": "~313", "unit": "mg/kg"},
      {"measurement": "ED50", "setting": "mice", "result": "~106", "unit": "mg/kg"}
    ]}
  ]
}
